Results from US5093370A, “Quaternary ammonium compounds having muscle relaxation activity” (priority 1989, dated 1992).

Legend:
[1] = system: neuromuscular preparations (hemiinterseptum neuromuscule); assay: Muscle relaxation action: inhibition of nerve-evoked contraction of mouse neuromuscular preparation; type: cell-based, ddY mice; conditions: read-out: Muscle relaxation action IC50 (90% reliance)
Method: Muscle relaxation action IC50)
(§1) To prepare neuromuscular preparations ddY mice 6 to 10 weeks old weighing 27.0 to 42.0 g were decapitated, venesected, and the hemiinterseptum neuromuscule was removed. This preparation was suspended by applying 1 gram of a strain in Krebs-Henseleit's solution at 36 ±1° C., through which a mixed gas of carbon dioxide/oxygen (5:95) was passed, an electric shock (0.4 to 0.5V, 0.2 Hz, […].) was applied to the nerve by platinum electrodes, and the resulting short contraction reaction was detected by an isometric transducer (Nippon Koden Sha, Japan) and recorded by a biophysiograph system (San-Ei, Japan). An average of 12 contraction height data obtained one minute prior to the administration of a test compound was used as a control. The test compound was accumulatively administered at two minute intervals, and the contraction height two minutes after each administration was compared with the control, to calculate the percentage of inhibition. To ensure the reliability of the tests, usually four measurements were used for each administration. The IC50 value was obtained on a line linearized by the method of least aqueous from a scope from a 10 to 60% inhibition in a log dose-inhibition curve.

[2] = system: neuromuscular preparations (hemiinterseptum neuromuscule); assay: Muscle relaxation action under a diabetic condition (neuromuscular preparations from alloxan-treated mice); type: cell-based; conditions: Mus musculus; alloxan diabetic ddY mice 8 to 11 weeks old, blood glucose 310 to 460 mg/dl; parentheses: 90% reliance
Method: as §1, with “administration.” for “administration. The IC50 value was obtained on a line linearized by the method of least aqueous from a scope from a 10 to 60% inhibition in a log dose-inhibition curve.”
Muscle relaxation action under a diabetic condition IC50
Alloxan monohydrate (Nakarai Kagaku, Japan) was administered to the tail vein of ddY mice 4 to 5 weeks old, in a dose of 85 mg/kg, and the blood glucose level was monitored starting at the 28th day, by a glucose analyzer from the administration of alloxan (Bechmann Type II). Mice 8 to 11 weeks old and weighing 19.0 to 36.0 g, and having a blood glucose level of 310 to 460 mg/dl, were chosen and used to prepare neuromuscular preparations as described above.

[3] = ddY mice 6 to 10 weeks old, Krebs-Henseleit's solution, 36 ±1° C., contraction height two minutes after each cumulative administration, parentheses: 90% reliance

For `CC[N+](CC)(CC)CCCCc1ccc(CCCC[N+](CC)(CC)CC)cc1` [Example 18, 1,4-Bis(triethylammoniobutyl)benzene diiodide], the IC50 [1, 3] was 52.4 µM and the IC50 [2] was 51.1 µM.
Work on `CC[N+](CC)(CC)CCCCCCc1ccc(CCCCCC[N+](CC)(CC)CC)cc1` [Example 21, 1,4-Bis(6-triethylammoniohexyl)benzene diiodide] yielded an IC50 [1, 3] of 6.81 µM and an IC50 [2] of 7.66 µM.
`CC[N+](CC)(CC)CCCc1ccc(CCC[N+](CC)(CC)CC)cc1` [Example 6, 1,4-Bis(3-triethylammoniopropyl)benzene diiodide] gave an IC50 [1, 3] of 176 µM.
`CC[N+](CC)(CC)CCCc1ccc2cc(CCC[N+](CC)(CC)CC)ccc2c1` [Example 32, 2,6-Bis(3-triethylammoniopropyl)naphthalene diiodide] was tested, and the IC50 [1, 3] was 79.1 µM.
For `CC[N+](CC)(CC)CCCCCSc1ccc(SCCCCC[N+](CC)(CC)CC)cc1` [Example 33, 1,4-Bis(5-triethylammoniopentylthio)benzene diiodide], the IC50 [1, 3] was 1.5 µM.
With `C[N+]1(CCCc2ccc(CCC[N+]3(C)CCCCC3)cc2)CCCCC1` [Example 7, 1,4-Bis3-(1-methyl-1-piperidinio)propyl]benzene dibromide] the IC50 [1] was 119 µM.
With `CC[N+](CC)(CC)CCCCCCc1ccc(CCCCCC[N+](CC)(CC)CC)c([N+](=O)[O-])c1` [Example 26, 1,4-Bis(6-triethylammoniohexyl)-2-nitrobenzene diiodide] the IC50 [1, 3] was 4.52 µM.
In the case of `C[N+](C)(C)CCCC(O)c1ccc(C(O)CCC[N+](C)(C)C)cc1` (stereo not shown) [Example 3, 1,4-Bis(1-hydroxy-4-trimethylammoniobutyl)benzene diiodide], the IC50 [1, 3] is reported as 209 µM.
`c1cc[n+](CCCc2ccc(CCC[n+]3ccccc3)cc2)cc1` [Example 8, 1,4-Bis[3-(1-pyridinio)propyl]benzene dibromide] was tested, and the IC50 [1, 3] was 207 µM.
`C[N+](C)(C)CC(CCCc1ccc(CCCC(C[N+](C)(C)C)C[N+](C)(C)C)cc1)C[N+](C)(C)C` [Example 13] showed an IC50 [1, 3] of 1440 µM.
Work on `C[N+]1(CCCCc2ccc(CCCC[N+]3(C)CCCCC3)cc2)CCCCC1` [Example 19, 1,4-Bis[4-(1-methyl-1-piperidinio)butyl]benzene dibromide] yielded an IC50 [1, 3] of 95.9 µM.
In the case of `C[N+](C)(C)CCCCc1ccc(CCCC[N+](C)(C)C)c([N+](=O)[O-])c1` [Example 23, 1,4-Bis(4-trimethylammoniobutyl)-2-nitrobenzene diiodide], the IC50 [1] is reported as 12.7 µM and the IC50 [2] is reported as 11.9 µM.
For `C[N+](C)(C)CCCc1ccc2cc(CCC[N+](C)(C)C)ccc2c1` [Example 31, 2,6-Bis(3-trimethylammoniopropyl)naphthalene diiodide], the IC50 [1, 3] was 186 µM.
Work on `C[N+](C)(C)CCOCc1ccc(COCC[N+](C)(C)C)cc1` [Example 12, 1,4-Bis(2-trimethylammonioethoxymethyl)benzene diiodide] yielded an IC50 [1] of 750 µM.
Work on `C[N+](C)(C)CCCC(=O)c1ccc(C(=O)CCC[N+](C)(C)C)cc1` [Example 2, 1,4-Bis(4-trimethylammoniobutyryl)benzene diiodide] yielded an IC50 [1] of 26 µM and an IC50 [2] of 32.7 µM.
`C[N+](C)(C)CCCS(=O)(=O)c1ccc(S(=O)(=O)CCC[N+](C)(C)C)cc1` [Example 30, 1,4-Bis(3-trimethylammoniopropylsulfonyl)benzene diiodide] gave an IC50 [1, 3] of 9.44 µM.
`CC(=O)OC(CCC[N+](C)(C)C)c1ccc(C(CCC[N+](C)(C)C)OC(C)=O)cc1` (stereo not shown) [Example 4, 1,4-Bis(1-acetoxy-4-trimethylammoniobutyl)benzene diiodide] was tested, and the IC50 [1] was 450 µM.
In the case of `C[N+](C)(C)CCCCCCc1ccc(CCCCCC[N+](C)(C)C)cc1` [Example 20, 1,4-Bis(6-trimethylammoniohexyl)benzene diiodide], the IC50 [1] is reported as 15.9 µM and the IC50 [2] is reported as 21.7 µM.
`C[N+](C)(C)CCCSc1ccc(SCCC[N+](C)(C)C)cc1` [Example 28, 1,4-Bis(3-trimethylammoniopropylthio)benzene diiodide] showed an IC50 [1, 3] of 3.89 µM.
`C[N+](C)(C)CCC#Cc1ccc(C#CCC[N+](C)(C)C)cc1` [Example 25, 1,4-Bis(4-trimethylammonio-1-butynyl)benzene diiodide] showed an IC50 [1] of 110 µM.
`CC[N+](CC)(CC)CCCCCCCc1ccc(CCCCCCC[N+](CC)(CC)CC)cc1` [Example 27, 1,4-Bis(7-triethylammonioheptyl)benzene diiodide] gave an IC50 [1, 3] of 5.96 µM.
In the case of `CC[N+](CC)(CC)CCCCCCCCc1ccc(CCCCCCCC[N+](CC)(CC)CC)cc1` [Example 36, 1,4-Bis(8-triethylammoniooctyl)benzene diiodide], the IC50 [1, 3] is reported as 114 µM.
For `C[N+](C)(C)CCC[S+]([O-])c1ccc([S+]([O-])CCC[N+](C)(C)C)cc1` (stereo not shown) [Example 29, 1,4-Bis(3-trimethylammoniopropylsulfinyl)benzene diiodide], the IC50 [1, 3] was 5.46 µM.
Work on `C[N+](C)(C)CCCCCCCCc1ccccc1` [Example 15, N,N,N-Trimethyl-8-phenyloctylammonium p-tosylate] yielded an IC50 [1, 3] of 252 µM.
With `C[N+](C)(C)CCCCc1cccc(CCCC[N+](C)(C)C)c1` [Example 16, 1,3-Bis(4-trimethylammoniobutyl)benzene diiodide] the IC50 [1] was 531 µM.
With `C[N+](C)(C)CCCc1ccc(-c2ccc(CCC[N+](C)(C)C)cc2)cc1` [Example 34, 4,4'-Bis(3-trimethylammoniopropyl)biphenyl diiodide] the IC50 [1] was 132 µM.
`C[N+](C)(C)CCCCCCCCCC[N+](C)(C)C` [Decamethonium, reference compound] was tested, and the IC50 [1, 3] was 101 µM and the IC50 [2] was 131 µM.
`CC[N+](CC)(CC)CCCCCc1ccc(CCCCC[N+](CC)(CC)CC)cc1` [Example 10, 1,4-Bis(5-triethylammoniopentyl)benzene diiodide] gave an IC50 [1, 3] of 11.2 µM.
Compound `C[N+]1(CCCCCCc2ccc(CCCCCC[N+]3(C)CCCCC3)cc2)CCCCC1` [Example 22, 1,4-Bis[6-(1-methyl-1-piperidinio)hexyl]benzene dibromide] has an IC50 [1, 3] of 17.3 µM and an IC50 [2] of 21.8 µM.
`C[N+](C)(C)CCCCc1ccc(CCCC[N+](C)(C)C)cc1` [Example 1, 1,4-Bis(4-trimethylammoniobutyl)benzene diiodide] gave an IC50 [1] of 22.8 µM and an IC50 [2] of 25.9 µM.
`C[N+]1(CCCCCc2ccc(CCCCC[N+]3(C)CCCCC3)cc2)CCCCC1` [Example 11] showed an IC50 [1, 3] of 60.7 µM.
Compound `C[N+](C)(C)CCCCc1ccccc1CCCC[N+](C)(C)C` [Example 17, 1,2-Bis(4-trimethylammoniobutyl)benzene diiodide] has an IC50 [1] of 59.7 µM.
Compound `C[N+](C)(C)CCOC(=O)CCC(=O)OCC[N+](C)(C)C` [Succinylcholine, reference compound] has an IC50 [1, 3] of 25.2 µM and an IC50 [2] of 19.3 µM.
`CC[N+](CC)(CC)CCCc1ccc(-c2ccc(CCC[N+](CC)(CC)CC)cc2)cc1` [Example 35, 4,4'-Bis(3-triethylammoniopropyl)biphenyl diiodide] was tested, and the IC50 [1, 3] was 24.9 µM.
